Results reported in patent publication US20250296959A1, “B7-H3 TARGETING PEPTIDES AND CONSTRUCTS THEREOF” (Mariana Oncology Inc., priority 2024, published 2025).
Starred links: 1 amine or outer side, 2 acyl side, 3 side chain; linkers in the order of their positions; H or OH if unused. Positions of bridges follow the written chain, without caps; N, C: chain ends. Non-standard residues stand in square brackets, D forms with d. Residues, ends and D or L forms follow the SMILES beside them. *: point of attachment. Ala(piperidin-4-yl) = O=C([C@H](CC1CCN([*:3])CC1)N[*:1])[*:2]; DOTA = O=C(O)CN1CCN(CC(=O)O)CCN(CC(=O)*)CCN(CC(=O)O)CC1; Trp(5-F) = N[C@@H](Cc1c[nH]c2ccc(F)cc12)C(=O)O; 4Pal = N[C@@H](Cc1ccncc1)C(=O)O; Cha = N[C@@H](CC1CCCCC1)C(=O)O; Tle = CC(C)(C)[C@H](N)C(=O)O; hLeu = CC(C)CC[C@H](N)C(=O)O; Nle = CCCC[C@H](N)C(=O)O; Orn = NCCC[C@H](N)C(=O)O; Sar = CNCC(=O)O

Target: T1, human 4lg B7-H3 (Homo sapiens, UniProt Q5ZPR3)
T1 sequence (Q5ZPR3 29-534): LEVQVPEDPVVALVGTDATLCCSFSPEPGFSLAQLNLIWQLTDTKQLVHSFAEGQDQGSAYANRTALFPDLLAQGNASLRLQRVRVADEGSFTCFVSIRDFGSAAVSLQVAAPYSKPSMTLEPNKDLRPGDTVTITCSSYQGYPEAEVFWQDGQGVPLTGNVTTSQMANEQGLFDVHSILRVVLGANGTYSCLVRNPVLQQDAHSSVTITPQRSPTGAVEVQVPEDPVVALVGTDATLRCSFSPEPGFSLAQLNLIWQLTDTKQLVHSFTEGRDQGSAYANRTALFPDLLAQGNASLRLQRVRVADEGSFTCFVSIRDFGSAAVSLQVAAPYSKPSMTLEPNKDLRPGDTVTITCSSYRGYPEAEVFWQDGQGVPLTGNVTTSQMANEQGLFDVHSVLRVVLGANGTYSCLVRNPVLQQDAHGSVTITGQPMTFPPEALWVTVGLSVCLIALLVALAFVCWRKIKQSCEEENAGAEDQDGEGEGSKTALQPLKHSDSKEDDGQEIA
Experiment: Affinity determination by surface plasmon resonance (SPR) to 4Ig B7-H3
Conditions: SPR KD—25° C., 4Ig B7-H3; 25° C. flow cell temperature

SMILES	Kd [nM]
CCCC[C@H](NC(C)=O)C(=O)N[C@@H](Cc1ccc(O)cc1)C(=O)N[C@H]1CSSC[C@@H](C(=O)N[C@@H](Cc2c[nH]c3ccccc23)C(=O)N[C@@H](Cc2ccccc2)C(=O)N[C@H](C(=O)N[C@H](CCCCNC(=O)CN2CCN(CC(=O)O)CCN(CC(=O)O)CCN(CC(=O)O)CC2)C(N)=O)[C@@H](C)O)NC(=O)[C@H](Cc2ccc(O)cc2)NC(=O)[C@H](C(C)C)NC(=O)[C@H](CC(=O)O)NC(=O)[C@H](Cc2ccc(O)cc2)NC(=O)[C@H](CCCCNC(C)=O)NC(=O)CNC(=O)[C@H](C(C)C)NC1=O [compound 65, Ac-Nle-Y-C-V-G-Lys(Ac)-Y-D-V-Y-C-W-F-Thr-dLys(DOTA)-CONH2] (Ac-[Nle]YCVGK(Ac)YDVYCWFT[dK](DOTA)-NH2; disulfide 3-11)	10 to 100
CCCC[C@H](NC(C)=O)C(=O)N[C@@H](Cc1ccc(O)cc1)C(=O)N[C@H]1CSSC[C@@H](C(=O)N[C@@H](Cc2c[nH]c3ccccc23)C(=O)N[C@@H](Cc2ccccc2)C(=O)N[C@H](C(=O)N[C@H](CCCCNC(=O)CN2CCN(CC(=O)O)CCN(CC(=O)O)CCN(CC(=O)O)CC2)C(N)=O)[C@@H](C)O)NC(=O)[C@H](Cc2ccc(O)cc2)NC(=O)[C@H](C(C)C)NC(=O)[C@H](CC(=O)O)NC(=O)[C@H](Cc2ccc(O)cc2)NC(=O)[C@H](CCCC)NC(=O)CNC(=O)[C@H](C(C)C)NC1=O [compound 66, Ac-Nle-Y-C-V-G-Nle-Y-D-V-Y-C-W-F-Thr-dLys(DOTA)-CONH2] (Ac-[Nle]YCVG[Nle]YDVYCWFT[dK](DOTA)-NH2; disulfide 3-11)	10 to 100
CC(=O)N[C@@H](CCC(C)C)C(=O)N[C@@H](Cc1ccc(O)cc1)C(=O)N[C@H]1CSSC[C@@H](C(=O)N[C@@H](Cc2c[nH]c3ccccc23)C(=O)N[C@@H](Cc2ccccc2)C(=O)N[C@H](C(=O)N[C@H](CCCCNC(=O)CN2CCN(CC(=O)O)CCN(CC(=O)O)CCN(CC(=O)O)CC2)C(N)=O)[C@@H](C)O)NC(=O)[C@H](Cc2ccc(O)cc2)NC(=O)[C@H](C(C)C)NC(=O)[C@H](CC(=O)O)NC(=O)[C@H](Cc2ccc(O)cc2)NC(=O)[C@H](CCCCN)NC(=O)CN(C)C(=O)[C@H](C(C)(C)C)NC1=O [compound 75, Ac-hLeu-Y-C-Tbg-Sar-K-Y-D-V-Y-C-W-F-Thr-dLys(DOTA)-CONH2] (Ac-[hLeu]YC[Tle][Sar]KYDVYCWFT[dK](DOTA)-NH2; disulfide 3-11)	1 to 10
CC(=O)N[C@@H](CCC(C)C)C(=O)N[C@@H](Cc1ccc(O)cc1)C(=O)N[C@H]1CSSC[C@@H](C(=O)N[C@@H](Cc2c[nH]c3ccc(F)cc23)C(=O)N[C@@H](Cc2ccccc2)C(=O)N[C@H](C(=O)N[C@H](CCCCNC(=O)CN2CCN(CC(=O)O)CCN(CC(=O)O)CCN(CC(=O)O)CC2)C(N)=O)[C@@H](C)O)NC(=O)[C@H](Cc2ccc(O)cc2)NC(=O)[C@H](C(C)C)NC(=O)[C@H](CC(=O)O)NC(=O)[C@H](Cc2ccc(O)cc2)NC(=O)[C@H](CCCCN)NC(=O)CN(C)C(=O)[C@H](C(C)(C)C)NC1=O [compound 78, Ac-hLeu-Y-C-Tbg-Sar-K-Y-D-V-Y-C-5FW-F-Thr-dLys(DOTA)-CONH2] (Ac-[hLeu]YC[Tle][Sar]KYDVYC[Trp(5-F)]FT[dK](DOTA)-NH2; disulfide 3-11)	1 to 10
CCCC[C@H](NC(C)=O)C(=O)N[C@@H](Cc1ccc(O)cc1)C(=O)N[C@H]1CSSC[C@@H](C(=O)N[C@@H](Cc2c[nH]c3ccccc23)C(=O)N[C@@H](Cc2ccccc2)C(=O)N[C@H](C(=O)N[C@H](CCCCNC(=O)CN2CCN(CC(=O)O)CCN(CC(=O)O)CCN(CC(=O)O)CC2)C(N)=O)[C@@H](C)O)NC(=O)[C@H](Cc2ccc(O)cc2)NC(=O)[C@H](C(C)C)NC(=O)[C@H](CC(=O)O)NC(=O)[C@H](Cc2ccc(O)cc2)NC(=O)[C@H](Cc2ccncc2)NC(=O)CNC(=O)[C@H](C(C)C)NC1=O [compound 79, Ac-Nle-Y-C-V-G-4PyA-Y-D-V-Y-C-W-F-Thr-dLys(DOTA)-CONH2] (Ac-[Nle]YCVG[4Pal]YDVYCWFT[dK](DOTA)-NH2; disulfide 3-11)	10 to 100
CCCC[C@H](NC(C)=O)C(=O)N[C@@H](Cc1ccc(O)cc1)C(=O)N[C@H]1CSSC[C@@H](C(=O)N[C@@H](Cc2c[nH]c3ccccc23)C(=O)N[C@@H](Cc2ccccc2)C(=O)N[C@H](C(=O)N[C@H](CCCCNC(=O)CN2CCN(CC(=O)O)CCN(CC(=O)O)CCN(CC(=O)O)CC2)C(N)=O)[C@@H](C)O)NC(=O)[C@H](Cc2ccc(O)cc2)NC(=O)[C@H](C(C)C)NC(=O)[C@H](CC(N)=O)NC(=O)[C@H](Cc2ccc(O)cc2)NC(=O)[C@H](CCCCN)NC(=O)CNC(=O)[C@H](C(C)C)NC1=O [compound 80, Ac-Nle-Y-C-V-G-K-Y-N-V-Y-C-W-F-Thr-dLys(DOTA)-CONH2] (Ac-[Nle]YCVGKYNVYCWFT[dK](DOTA)-NH2; disulfide 3-11)	10 to 100
CCCC[C@H](NC(C)=O)C(=O)N[C@@H](Cc1ccc(O)cc1)C(=O)N[C@H]1CSSC[C@@H](C(=O)N[C@@H](Cc2c[nH]c3ccccc23)C(=O)N[C@@H](Cc2ccccc2)C(=O)N[C@H](C(=O)N[C@H](CCCCNC(=O)CN2CCN(CC(=O)O)CCN(CC(=O)O)CCN(CC(=O)O)CC2)C(N)=O)[C@@H](C)O)NC(=O)[C@H](Cc2ccc(O)cc2)NC(=O)[C@H](C(C)C)NC(=O)[C@H](CO)NC(=O)[C@H](Cc2ccc(O)cc2)NC(=O)[C@H](CCCCN)NC(=O)CNC(=O)[C@H](C(C)C)NC1=O [compound 81, Ac-Nle-Y-C-V-G-K-Y-S-V-Y-C-W-F-Thr-dLys(DOTA)-CONH2] (Ac-[Nle]YCVGKYSVYCWFT[dK](DOTA)-NH2; disulfide 3-11)	100 to 300
CCCC[C@H](NC(C)=O)C(=O)N[C@@H](Cc1ccc(O)cc1)C(=O)N[C@H]1CSSC[C@@H](C(=O)N[C@@H](Cc2c[nH]c3ccccc23)C(=O)N[C@@H](CC2CCCCC2)C(=O)N[C@H](C(=O)N[C@H](CCCCNC(=O)CN2CCN(CC(=O)O)CCN(CC(=O)O)CCN(CC(=O)O)CC2)C(N)=O)[C@@H](C)O)NC(=O)[C@H](Cc2ccc(O)cc2)NC(=O)[C@H](C(C)C)NC(=O)[C@H](CC(=O)O)NC(=O)[C@H](Cc2ccc(O)cc2)NC(=O)[C@H](CCCCN)NC(=O)CNC(=O)[C@H](C(C)C)NC1=O [compound 82, Ac-Nle-Y-C-V-G-K-Y-D-V-Y-C-W-ChA-Thr-dLys(DOTA)-CONH2] (Ac-[Nle]YCVGKYDVYCW[Cha]T[dK](DOTA)-NH2; disulfide 3-11)	100 to 300
CCCC[C@H](NC(C)=O)C(=O)N[C@@H](Cc1ccc(O)cc1)C(=O)N[C@H]1CSSC[C@@H](C(=O)N[C@@H](Cc2c[nH]c3ccccc23)C(=O)N[C@@H](Cc2ccccc2)C(=O)N[C@H](C(=O)N[C@H](CCCCNC(=O)CN2CCN(CC(=O)O)CCN(CC(=O)O)CCN(CC(=O)O)CC2)C(N)=O)[C@@H](C)O)NC(=O)[C@H](Cc2ccc(O)cc2)NC(=O)[C@H](C(C)C)NC(=O)[C@H](CC(=O)O)NC(=O)[C@H](Cc2ccc(O)cc2)NC(=O)[C@H](CCCNC(=N)N)NC(=O)CNC(=O)[C@H](C(C)C)NC1=O [compound 85, Ac-Nle-Y-C-V-G-Arg-Y-D-V-Y-C-W-F-Thr-dLys(DOTA)-CONH2] (Ac-[Nle]YCVGRYDVYCWFT[dK](DOTA)-NH2; disulfide 3-11)	1 to 10
CCCC[C@H](NC(C)=O)C(=O)N[C@@H](Cc1ccc(O)cc1)C(=O)N[C@H]1CSSC[C@@H](C(=O)N[C@@H](Cc2c[nH]c3ccccc23)C(=O)N[C@@H](Cc2ccccc2)C(=O)N[C@@H](CCCCN)C(=O)N[C@H](CCCCNC(=O)CN2CCN(CC(=O)O)CCN(CC(=O)O)CCN(CC(=O)O)CC2)C(N)=O)NC(=O)[C@H](Cc2ccc(O)cc2)NC(=O)[C@H](C(C)C)NC(=O)[C@H](CC(=O)O)NC(=O)[C@H](Cc2ccc(O)cc2)NC(=O)[C@H](CCCCN)NC(=O)CNC(=O)[C@H](C(C)C)NC1=O [compound 86, Ac-Nle-Y-C-V-G-K-Y-D-V-Y-C-W-F-Lys-dLys(DOTA)-CONH2] (Ac-[Nle]YCVGKYDVYCWFK[dK](DOTA)-NH2; disulfide 3-11)	10 to 100
CCCC[C@H](NC(C)=O)C(=O)N[C@@H](Cc1ccc(O)cc1)C(=O)N[C@H]1CSSC[C@@H](C(=O)N[C@@H](Cc2c[nH]c3ccccc23)C(=O)N[C@@H](Cc2ccccc2)C(=O)N[C@@H](CCCN)C(=O)N[C@H](CCCCNC(=O)CN2CCN(CC(=O)O)CCN(CC(=O)O)CCN(CC(=O)O)CC2)C(N)=O)NC(=O)[C@H](Cc2ccc(O)cc2)NC(=O)[C@H](C(C)C)NC(=O)[C@H](CC(=O)O)NC(=O)[C@H](Cc2ccc(O)cc2)NC(=O)[C@H](CCCCN)NC(=O)CNC(=O)[C@H](C(C)C)NC1=O [compound 87, Ac-Nle-Y-C-V-G-K-Y-D-V-Y-C-W-F-Orn-dLys(DOTA)-CONH2] (Ac-[Nle]YCVGKYDVYCWF[Orn][dK](DOTA)-NH2; disulfide 3-11)	10 to 100
CCCC[C@H](NC(C)=O)C(=O)N[C@@H](Cc1ccc(O)cc1)C(=O)N[C@H]1CSSC[C@@H](C(=O)N[C@@H](Cc2c[nH]c3ccccc23)C(=O)N[C@@H](Cc2ccccc2)C(=O)N[C@@H](CC2CCNCC2)C(=O)N[C@H](CCCCNC(=O)CN2CCN(CC(=O)O)CCN(CC(=O)O)CCN(CC(=O)O)CC2)C(N)=O)NC(=O)[C@H](Cc2ccc(O)cc2)NC(=O)[C@H](C(C)C)NC(=O)[C@H](CC(=O)O)NC(=O)[C@H](Cc2ccc(O)cc2)NC(=O)[C@H](CCCCN)NC(=O)CNC(=O)[C@H](C(C)C)NC1=O [compound 89, Ac-Nle-Y-C-V-G-K-Y-D-V-Y-C-W-F-4PipAla-dLys(DOTA)-CONH2] (Ac-[Nle]YCVGKYDVYCWF[Ala(piperidin-4-yl)][dK](DOTA)-NH2; disulfide 3-11)	10 to 100
